Reference: ChEMBL document CHEMBL4507286 (2021)
Activity calls are given as the source filed them. The rule behind the calls is not given here.

Key:
[1] = target: Serine/threonine-protein kinase Chk1 (Homo sapiens) (UniProt O14757)
[2] = target: Tyrosine-protein kinase ITK/TSK (Homo sapiens) (UniProt Q08881)
[3] = target: Serine/threonine-protein kinase OSR1 (Homo sapiens) (UniProt O95747)
[4] = target: Histamine H2 receptor (Homo sapiens) (UniProt P25021); conditions: Compound concentration 10.0 uM
[5] = target: Ribosomal protein S6 kinase alpha-2 (Homo sapiens) (UniProt Q15349)
[6] = target: Ephrin type-B receptor 3 (Homo sapiens) (UniProt P54753)
[7] = target: Tyrosine-protein kinase FRK (Homo sapiens) (UniProt P42685)
[8] = target: Calcium/calmodulin-dependent protein kinase type II subunit gamma (Homo sapiens) (UniProt Q13555)
[9] = target: Serine/threonine-protein kinase TAO2 (Homo sapiens) (UniProt Q9UL54)
[10] = system: Epidermal growth factor receptor (Homo sapiens), P00533 [UNDEFINED MUTATION]
Epidermal growth factor receptor (Homo sapiens), P00533 [UNDEFINED MUTATION], sequence (P00533 whole entry, looked up, change not shown): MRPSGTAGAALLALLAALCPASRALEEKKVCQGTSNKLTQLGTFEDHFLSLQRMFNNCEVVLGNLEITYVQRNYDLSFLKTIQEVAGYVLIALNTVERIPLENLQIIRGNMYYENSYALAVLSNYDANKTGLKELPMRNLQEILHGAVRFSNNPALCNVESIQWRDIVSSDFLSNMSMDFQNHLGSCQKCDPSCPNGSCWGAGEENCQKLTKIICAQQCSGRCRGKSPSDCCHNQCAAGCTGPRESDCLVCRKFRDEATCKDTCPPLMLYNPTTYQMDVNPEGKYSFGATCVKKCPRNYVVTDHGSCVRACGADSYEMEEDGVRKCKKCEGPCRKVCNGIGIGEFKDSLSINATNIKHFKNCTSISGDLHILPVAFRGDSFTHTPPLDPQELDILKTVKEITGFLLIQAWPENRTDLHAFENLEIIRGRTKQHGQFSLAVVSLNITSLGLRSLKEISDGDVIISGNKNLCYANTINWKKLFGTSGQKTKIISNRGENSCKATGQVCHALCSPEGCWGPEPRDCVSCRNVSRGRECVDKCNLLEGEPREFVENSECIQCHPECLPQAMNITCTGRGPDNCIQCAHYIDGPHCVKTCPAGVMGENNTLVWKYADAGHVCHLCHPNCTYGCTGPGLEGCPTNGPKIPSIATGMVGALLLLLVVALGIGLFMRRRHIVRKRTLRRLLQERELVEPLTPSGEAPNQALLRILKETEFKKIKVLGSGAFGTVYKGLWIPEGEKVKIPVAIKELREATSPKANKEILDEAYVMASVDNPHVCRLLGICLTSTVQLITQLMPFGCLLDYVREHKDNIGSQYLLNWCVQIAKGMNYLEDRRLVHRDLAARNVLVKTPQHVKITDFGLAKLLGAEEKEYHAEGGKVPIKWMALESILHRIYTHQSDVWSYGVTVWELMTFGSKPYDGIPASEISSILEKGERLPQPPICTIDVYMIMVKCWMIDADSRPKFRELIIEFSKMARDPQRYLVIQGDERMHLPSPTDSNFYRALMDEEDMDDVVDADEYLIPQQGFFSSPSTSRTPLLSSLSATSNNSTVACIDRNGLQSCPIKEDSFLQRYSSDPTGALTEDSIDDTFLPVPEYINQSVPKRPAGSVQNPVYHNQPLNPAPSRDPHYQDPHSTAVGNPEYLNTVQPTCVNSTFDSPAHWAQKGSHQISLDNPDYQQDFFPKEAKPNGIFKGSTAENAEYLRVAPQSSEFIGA

[11] = target: MAP kinase-interacting serine/threonine-protein kinase 2 (Homo sapiens) (UniProt Q9HBH9)
[12] = target: Dual serine/threonine and tyrosine protein kinase (Homo sapiens) (UniProt Q6XUX3)
[13] = target: RAC-beta serine/threonine-protein kinase (Homo sapiens) (UniProt P31751)
[14] = target: Ephrin type-B receptor 2 (Homo sapiens) (UniProt P29323)
Ephrin type-B receptor 2 (Homo sapiens), sequence (P29323 whole entry): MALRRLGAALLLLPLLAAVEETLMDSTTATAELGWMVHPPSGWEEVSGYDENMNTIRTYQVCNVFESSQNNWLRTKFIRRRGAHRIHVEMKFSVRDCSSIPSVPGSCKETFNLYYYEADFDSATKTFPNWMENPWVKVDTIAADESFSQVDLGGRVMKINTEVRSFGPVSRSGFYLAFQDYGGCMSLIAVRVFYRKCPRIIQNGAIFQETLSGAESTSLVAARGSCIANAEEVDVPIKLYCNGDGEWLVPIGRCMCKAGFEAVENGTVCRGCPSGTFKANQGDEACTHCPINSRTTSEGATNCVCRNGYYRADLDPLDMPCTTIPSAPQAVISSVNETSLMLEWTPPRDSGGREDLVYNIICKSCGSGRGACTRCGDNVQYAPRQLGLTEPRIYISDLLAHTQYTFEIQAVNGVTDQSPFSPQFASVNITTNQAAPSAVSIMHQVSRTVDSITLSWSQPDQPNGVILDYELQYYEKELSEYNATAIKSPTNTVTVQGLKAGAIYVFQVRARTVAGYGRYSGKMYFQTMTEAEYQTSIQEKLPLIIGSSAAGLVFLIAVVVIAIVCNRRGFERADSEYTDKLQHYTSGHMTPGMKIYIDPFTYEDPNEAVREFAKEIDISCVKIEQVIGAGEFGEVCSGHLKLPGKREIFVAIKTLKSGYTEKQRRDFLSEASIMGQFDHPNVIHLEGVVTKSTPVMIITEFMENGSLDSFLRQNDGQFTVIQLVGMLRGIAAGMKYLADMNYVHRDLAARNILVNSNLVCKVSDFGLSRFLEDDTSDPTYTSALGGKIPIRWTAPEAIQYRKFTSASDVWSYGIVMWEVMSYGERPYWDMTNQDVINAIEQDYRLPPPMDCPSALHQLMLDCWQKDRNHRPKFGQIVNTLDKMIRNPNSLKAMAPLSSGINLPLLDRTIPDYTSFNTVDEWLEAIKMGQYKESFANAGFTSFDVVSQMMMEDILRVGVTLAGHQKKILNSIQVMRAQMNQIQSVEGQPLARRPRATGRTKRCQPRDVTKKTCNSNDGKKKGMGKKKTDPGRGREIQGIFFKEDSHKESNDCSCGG

[15] = target: Serine/threonine-protein kinase BRSK1 (Homo sapiens) (UniProt Q8TDC3)
[16] = target: Mitogen-activated protein kinase kinase kinase kinase 2 (Homo sapiens) (UniProt Q12851)
[17] = target: Mitogen-activated protein kinase kinase kinase 10 (Homo sapiens) (UniProt Q02779)
[18] = target: 5-hydroxytryptamine receptor 7 (Homo sapiens) (UniProt P34969); conditions: Compound concentration 10.0 uM
[19] = target: Serine/threonine-protein kinase Nek4 (Homo sapiens) (UniProt P51957)
[20] = target: Insulin-like growth factor 1 receptor (Homo sapiens) (UniProt P08069)
Insulin-like growth factor 1 receptor (Homo sapiens), sequence (P08069 31-736 limits assumed): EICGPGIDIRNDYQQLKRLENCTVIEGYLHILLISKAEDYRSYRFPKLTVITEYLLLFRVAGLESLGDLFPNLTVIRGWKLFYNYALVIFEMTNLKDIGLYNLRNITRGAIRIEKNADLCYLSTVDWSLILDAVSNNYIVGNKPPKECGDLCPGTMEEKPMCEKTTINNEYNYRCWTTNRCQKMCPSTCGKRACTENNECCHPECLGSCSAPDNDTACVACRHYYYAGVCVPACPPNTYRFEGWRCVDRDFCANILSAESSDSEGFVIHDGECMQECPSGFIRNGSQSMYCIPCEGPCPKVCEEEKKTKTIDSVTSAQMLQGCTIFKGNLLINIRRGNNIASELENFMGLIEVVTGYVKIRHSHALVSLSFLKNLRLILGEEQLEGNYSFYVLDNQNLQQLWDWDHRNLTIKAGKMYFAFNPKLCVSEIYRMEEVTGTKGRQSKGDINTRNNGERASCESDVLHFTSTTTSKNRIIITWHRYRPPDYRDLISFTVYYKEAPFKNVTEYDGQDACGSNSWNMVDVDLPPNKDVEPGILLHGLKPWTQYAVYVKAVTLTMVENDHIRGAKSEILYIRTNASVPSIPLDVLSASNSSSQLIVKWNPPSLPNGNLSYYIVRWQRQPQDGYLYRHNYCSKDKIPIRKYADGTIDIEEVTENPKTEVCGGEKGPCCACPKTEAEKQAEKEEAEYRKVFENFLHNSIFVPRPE
Insulin-like growth factor 1 receptor (Homo sapiens), sequence (P08069 741-1367 limits assumed): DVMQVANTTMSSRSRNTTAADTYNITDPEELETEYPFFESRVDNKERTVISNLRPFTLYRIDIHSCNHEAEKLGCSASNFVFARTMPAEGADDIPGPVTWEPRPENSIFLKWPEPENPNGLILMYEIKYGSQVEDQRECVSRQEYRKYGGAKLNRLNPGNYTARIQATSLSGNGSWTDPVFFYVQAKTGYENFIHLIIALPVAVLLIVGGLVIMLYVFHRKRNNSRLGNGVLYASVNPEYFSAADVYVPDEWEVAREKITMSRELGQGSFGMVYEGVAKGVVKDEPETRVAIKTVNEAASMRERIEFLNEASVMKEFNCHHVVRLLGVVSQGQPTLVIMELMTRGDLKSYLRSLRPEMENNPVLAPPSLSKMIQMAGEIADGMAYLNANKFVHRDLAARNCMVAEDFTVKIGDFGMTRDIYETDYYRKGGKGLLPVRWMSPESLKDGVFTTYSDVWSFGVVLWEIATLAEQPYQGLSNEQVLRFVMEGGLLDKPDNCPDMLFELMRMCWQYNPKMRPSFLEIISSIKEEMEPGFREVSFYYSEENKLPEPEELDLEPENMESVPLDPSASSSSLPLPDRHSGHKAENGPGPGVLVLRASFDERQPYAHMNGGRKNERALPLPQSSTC

[21] = target: Calcium/calmodulin-dependent protein kinase type 1G (Homo sapiens) (UniProt Q96NX5)
[22] = system: Tyrosine-protein kinase ABL1 (Homo sapiens), P00519 [Y253F]
[23] = target: Ribosomal protein S6 kinase alpha-6 (Homo sapiens) (UniProt Q9UK32)
[24] = target: Death-associated protein kinase 2 (Homo sapiens) (UniProt Q9UIK4)
[25] = system: Mast/stem cell growth factor receptor Kit (Homo sapiens), P10721 [A829P]
[26] = target: RAC-alpha serine/threonine-protein kinase (Homo sapiens) (UniProt P31749)
[27] = target: Receptor tyrosine-protein kinase erbB-2 (Homo sapiens) (UniProt P04626)
[28] = target: Tyrosine-protein kinase Lyn (Homo sapiens) (UniProt P07948)
[29] = target: 5-hydroxytryptamine receptor 2C (Homo sapiens) (UniProt P28335); conditions: Compound concentration 10.0 uM
[30] = target: Mast/stem cell growth factor receptor Kit (Homo sapiens) (UniProt P10721)
[31] = target: Inhibitor of nuclear factor kappa-B kinase subunit epsilon (Homo sapiens) (UniProt Q14164)
[32] = target: Ribosomal protein S6 kinase alpha-5 (Homo sapiens) (UniProt O75582)
[33] = target: Receptor-interacting serine/threonine-protein kinase 1 (Homo sapiens) (UniProt Q13546)
[34] = target: Serine/threonine-protein kinase N1 (Homo sapiens) (UniProt Q16512)
[35] = target: Mitogen-activated protein kinase 1 (Homo sapiens, UniProt P28482); test: ERK Biochemical Assay
[36] = target: Cyclin-dependent kinase-like 1 (Homo sapiens) (UniProt Q00532)
[37] = target: 1-phosphatidylinositol 3-phosphate 5-kinase (Homo sapiens) (UniProt Q9Y2I7)
[38] = target: Cyclin-dependent kinase-like 5 (Homo sapiens) (UniProt O76039)
[39] = target: Cyclin-dependent kinase 14 (Homo sapiens) (UniProt O94921)
[40] = target: Mitogen-activated protein kinase kinase kinase 4 (Homo sapiens) (UniProt Q9Y6R4)
[41] = target: Epidermal growth factor receptor (Homo sapiens) (UniProt P00533)
Epidermal growth factor receptor (Homo sapiens), sequence (P00533 whole entry): as the sequence (P00533 whole entry, looked up, change not shown) above

[42] = target: Serine/threonine-protein kinase Nek7 (Homo sapiens) (UniProt Q8TDX7)
[43] = target: Peripheral plasma membrane protein CASK (Homo sapiens) (UniProt O14936)
[44] = target: Myosin light chain kinase, smooth muscle (Homo sapiens) (UniProt Q15746)
[45] = target: Ephrin type-A receptor 2 (Homo sapiens) (UniProt P29317)
[46] = Compound concentration 1000.0 nM
[47] = Compound concentration 100.0 nM

C[C@H](NC(=O)Nc1cc2[nH]ncc2c(CO)n1)c1ccccn1 [ERKi-NC]
residual activity [1, 46]: 100% | residual activity [2, 46]: 100% | residual activity [3, 46]: 100% | inhibition [4]: 3.05% | residual activity [5, 46]: 100% | residual activity [6, 46]: 100% | residual activity [7, 46]: 100% | residual activity [8, 46]: 100% | residual activity [9, 46]: 82.3% | residual activity [10, 46]: 100% | residual activity [11, 46]: 82.6% | residual activity [12, 46]: 100% | residual activity [13, 46]: 100% | residual activity [14, 46]: 100% | residual activity [15, 46]: 100% | residual activity [16, 46]: 100% | residual activity [17, 46]: 100% | inhibition [18]: 33.4% | residual activity [19, 46]: 83.9% | residual activity [20, 46]: 100% | residual activity [21, 46]: 100% | residual activity [22, 46]: 100% | residual activity [23, 46]: 100% | residual activity [24, 46]: 100% | residual activity [25, 46]: 100% | residual activity [26, 46]: 90% | residual activity [27, 46]: 100% | residual activity [28, 46]: 100% | inhibition [29]: 13.6% | residual activity [30, 46]: 71.5% | residual activity [31, 46]: 100% | residual activity [32, 46]: 100% | residual activity [33, 46]: 100% | residual activity [34, 46]: 93.1% | IC50 [35]: 1780 nM (not active) | residual activity [36, 46]: 78.8% | residual activity [37, 46]: 100% | residual activity [38, 46]: 100% | residual activity [39, 46]: 100% | residual activity [40, 46]: 53.1% | residual activity [41, 46]: 100% | residual activity [42, 46]: 98% | residual activity [43, 46]: 60.8% | residual activity [44, 46]: 100% | residual activity [45, 46]: 100%

C[C@@H](NC(=O)Nc1cc2[nH]ncc2c(CO)n1)c1ccccc1 [ERKi]
residual activity [1, 47]: 97.1% | residual activity [2, 47]: 83.2% | residual activity [3, 47]: 69.8% | inhibition [4]: 11.8% | residual activity [5, 47]: 90.7% | residual activity [6, 47]: 94.8% | residual activity [7, 47]: 82.2% | residual activity [8, 47]: 84.6% | residual activity [9, 47]: 74.7% | residual activity [10, 47]: 88.7% | residual activity [11, 47]: 90.6% | residual activity [12, 47]: 91.6% | residual activity [13, 47]: 100% | residual activity [14, 47]: 83.3% | residual activity [15, 47]: 88.4% | residual activity [16, 47]: 78.3% | residual activity [17, 47]: 100% | inhibition [18]: 21.8% | residual activity [19, 47]: 86.6% | residual activity [20, 47]: 97.9% | residual activity [21, 47]: 70.6% | residual activity [22, 47]: 76.2% | residual activity [23, 47]: 83.4% | residual activity [24, 47]: 66.3% | residual activity [25, 47]: 55.1% | residual activity [26, 47]: 100% | residual activity [27, 47]: 100% | residual activity [28, 47]: 84.5% | inhibition [29]: 26.3% | residual activity [30, 47]: 89.5% | residual activity [31, 47]: 66.7% | residual activity [32, 47]: 87.8% | residual activity [33, 47]: 100% | residual activity [34, 47]: 89.3% | IC50 [35]: 1.8 nM (active) | residual activity [36, 47]: 81.1% | residual activity [37, 47]: 76.7% | residual activity [38, 47]: 88.3% | residual activity [39, 47]: 100% | residual activity [40, 47]: 100% | residual activity [41, 47]: 80.6% | residual activity [42, 47]: 76.9% | residual activity [43, 47]: 89.7% | residual activity [44, 47]: 83.5% | residual activity [45, 47]: 100%
